Measurements: PubChem BioAssay (NCI)
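How tested: cells in 96-well plates exposed to compound for 48 hours at five concentrations. GI50 = concentration required for 50% inhibition of growth. TGI is the concentration that stops growth completely.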

Tests used:
Test in all cases: NCI tumour cell line growth inhibition, 48 h
SK-MEL-5 melanoma = system: SK-MEL-5 melanoma
DU-145 prostate = system: DU-145 prostate
UO-31 renal = system: UO-31 renal
OVCAR-5 ovarian = system: OVCAR-5 ovarian
UACC-62 melanoma = system: UACC-62 melanoma
IGROV1 ovarian = system: IGROV1 ovarian
SR leukemia = system: SR leukemia
SN12C renal = system: SN12C renal

Row | SMILES | GI50 (SK-MEL-5 melanoma) [µM] | TGI (SK-MEL-5 melanoma) [µM] | GI50 (DU-145 prostate) [µM] | TGI (DU-145 prostate) [µM] | GI50 (UO-31 renal) [µM] | TGI (UO-31 renal) [µM] | GI50 (OVCAR-5 ovarian) [µM] | TGI (OVCAR-5 ovarian) [µM] | GI50 (UACC-62 melanoma) [µM] | TGI (UACC-62 melanoma) [µM] | GI50 (IGROV1 ovarian) [µM] | TGI (IGROV1 ovarian) [µM] | GI50 (SR leukemia) [µM] | TGI (SR leukemia) [µM] | GI50 (SN12C renal) [µM] | TGI (SN12C renal) [µM]
1 | O=C(Oc1ccc(Cl)cc1Cl)c1ccccc1Nc1ccnc(C(F)(F)F)c1 | 2.85 | 10.5 | 15.7 | 30.6 | 18.1 | > 100 | 7.9 | 22 | 2.29 | 7.06 | 17.8 | > 100 | 0.772 | > 100 | 3.01 | 7.63
2 | O=[N+]([O-])c1ccc(C(c2c[nH]c3ccccc23)c2c[nH]c3ccccc23)cc1 |  | 20.2 |  | 20.6 |  | 22.9 |  | 54.4 |  | 26.5 |  |  |  | 22.5 |  | 35.2
3 | O=C(CN1CCN(c2ncccn2)CC1)Nc1ccc(Cl)cc1C(=O)c1ccccc1Cl | 52.4 | > 100 | > 100 | > 100 | > 100 | > 100 | > 100 | > 100 | 92.8 | > 100 | 93.2 | > 100 | 67.8 | > 100 | > 100 | > 100
4 | COc1cc(C2C=C(c3cccc(NC(C)=O)c3)Nc3ncnn32)cc(OC)c1OC (stereo not given) | 0.397 | 22.2 | 0.44 | 7.34 | 33.5 | > 100 |  | > 100 | 0.262 | > 100 | 0.65 | > 26.5 | 0.437 |  | 0.489 | > 100
5 | O=C(Nc1ccc(N2CCNCC2)cc1)c1[nH]ncc1Nc1ncnc2sc3c(c12)CCC3 | 0.381 | 1.79 | 0.302 | 1.19 | 0.431 | 1.84 | 0.33 | 1.92 | 1.07 | 2.31 | 0.125 | 1.38 | 0.0638 |  | 0.412 | 1.84
6 | CCOC(=O)c1ccc(NC(=O)N2CC(C)OC(C)C2)cc1 (stereo not given) | > 100 | > 100 | > 100 | > 100 | > 100 | > 100 | > 100 | > 100 | > 100 | > 100 | > 100 | > 100 | > 100 | > 100 | > 100 | > 100
7 | COc1ccc2c(c1)/C(=C\c1c(C)nc3sc(C)cn13)C(=O)N2C | 2.15 | 5.49 | 11 | > 100 | 10 | > 100 | 19.9 | > 100 | 1.69 | 10 | 9.74 | > 100 | 0.345 | > 100 | 4.7 | 32.3
8 | C=C1C(=O)O[C@H]2[C@H]1CC/C(COC(=O)c1cc3cc(F)ccc3[nH]1)=C\CC[C@@]1(C)O[C@@H]21 | 1.85 | 3.84 | 1.67 | 3.19 | 1.2 | 2.54 | 1.77 | 4.09 | 1.89 | 3.79 | 1.44 | 3.14 | 2.03 | 17.6 | 1.85 | 3.92
9 | COc1cc(/C(C#N)=C/c2ccc3c(c2OC)OCO3)cc2c1OCO2 | 0.0546 | > 46.4 | 0.122 | 3.63 | 2.09 | > 100 | 0.823 | > 80.2 | 0.0531 | 22.3 | 0.165 | 42.3 | 0.0244 | 5.37 | 0.695 | > 100
10 | Cc1ncc(CN=Cc2ccc(Cl)cc2)c(N)n1 |  | > 100 |  | > 100 |  | > 100 |  | > 100 |  | > 100 |  | > 100 |  | > 100 |  | > 100
11 | CS(=O)(=O)CCNCc1nc(-c2ccc3ncnc(Nc4ccc(F)c(Cl)c4)c3c2)cs1 | 11.5 | > 25 | 5.49 | > 25 | 6.81 | > 25 | > 25 | > 25 | 17.6 | > 25 | 7.39 | > 25 | > 14 | > 22.2 | 15.6 | > 25
12 | COc1ccc2nc(N/N=C(\C)c3ccccn3)cc(C)c2c1 | 0.244 | 1.12 | 0.215 | 1.17 | 0.161 | 1.08 | 0.571 | 3.68 | 0.275 | 1.01 | 0.219 | 1.05 | 0.0592 | 0.452 | 0.317 | 1.71
13 | Cc1cc(-c2ncc(CC(=O)Nc3ccc(-c4cnccn4)cn3)cc2C)ccn1 | 6.69 | 29.6 | 72.9 | > 100 | 12.7 | > 100 | 26.3 | > 100 | 22.1 | > 100 | 30.5 | > 100 | 18.4 | > 100 | 91.7 | > 100
14 | O=C1NCc2ccc3c(-c4cccc(Cl)c4)c[nH]c3c21 | 0.269 | > 20.4 | 0.279 | > 50 | 0.465 | > 23.5 | 1.62 | > 50 | 0.278 | > 50 | 0.316 | > 50 | 0.0849 | > 50 | 0.438 | > 50
15 | COc1ccc2c(c1)[nH]c(=O)c1c3cc(C)c(C)cc3cn21 | < 0.0158 | 0.0763 | < 0.01 | 0.188 | < 0.0119 | 1.72 | 0.0561 | 2.92 | < 0.0204 | 5.32 | < 0.0188 | 0.215 | < 0.0152 | 0.224 | < 0.0192 | 1.74
